Laboratory results as given in article PMC7397269, “Synthesis and Evaluation of New Coumarin Derivatives as Antioxidant, Antimicrobial, and Anti-Inflammatory Agents” (Molecules, 2020).
Values after ≈ are worked out from the molar mass of the structure shown. Where two headings read alike, the source gives them in different places.

Legend:
[1] = tested on: Staphylococcus aureus ATCC 29213; test: Agar well diffusion, S. aureus; type: cell-based; conditions: ATCC29213, 100 μL of 10 mg/mL in DMSO, read-out: diameter of inhibition zone, SA
Outline: (§1)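 Agar well diffusion; NA for bacteria, SDA for yeast; inoculum 1 × 10^8 CFU/mL bacteria, 1 × 10^6 CFU/mL yeast. 100 μL of 10 mg/mL compound in DMSO per 10 mm well. 24 h, 37 °C; zone diameter, mm, n=3.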

[2] = tested on: Bacillus megaterium ATCC 9885; test: Agar well diffusion, B. megaterium; type: cell-based; conditions: Priestia megaterium, ATCC9885, 100 μL of 10 mg/mL in DMSO, read-out: diameter of inhibition zone, BM
Outline: as §1

[3] = tested on: Escherichia coli ATCC 2592; test: Agar well diffusion, E. coli; type: cell-based; conditions: ATCC2592, 100 μL of 10 mg/mL in DMSO, read-out: diameter of inhibition zone, EC
Outline: as §1

[4] = tested on: Saccharomyces cerevisiae local isolate; test: Agar well diffusion, S. cerevisiae; type: cell-based; conditions: read-out: diameter of inhibition zone, SC
Outline: as §1

[5] = tested on: Staphylococcus aureus ATCC 29213; test: MIC, two-fold serial dilution, S. aureus; type: cell-based; conditions: ATCC29213, read-out: Minimum inhibitory concentration, SA
Outline: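 Compounds with agar-well inhibition zone >16 mm went on to two-fold broth dilution at final 1000, 500, 250 and 125 μg/mL. Inocula were 1×10^8 CFU/mL for bacteria and 1×10^6 CFU/mL for yeast (0.1 mL per 5 mL), incubated 37 °C for 24 h. MIC taken as the lowest concentration with no growth.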

trypsin = test: Proteinase-inhibitory activity; type: biochemical; conditions: 250 µg/mL; mean ± SD (n = 3)
Outline: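 Trypsin (0.06 mg per 2 mL, 20 mM Tris-HCl pH 7.4) was preincubated 5 min with test sample at 250 µg/mL, then 0.8% casein was added for 20 min. Perchloric acid stopped the reaction and supernatant absorbance was read at 280 nm. % inhibition is relative to the no-sample control, in triplicate.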

COX-1 = target: T1, COX-1 (Homo sapiens, UniProt P23219); test: COX-1 inhibition, Cayman assay kit; type: biochemical; conditions: mean of two determinations
T1 construct: purchased Cayman Chemical 701070
T1 sequence (P23219 24-599): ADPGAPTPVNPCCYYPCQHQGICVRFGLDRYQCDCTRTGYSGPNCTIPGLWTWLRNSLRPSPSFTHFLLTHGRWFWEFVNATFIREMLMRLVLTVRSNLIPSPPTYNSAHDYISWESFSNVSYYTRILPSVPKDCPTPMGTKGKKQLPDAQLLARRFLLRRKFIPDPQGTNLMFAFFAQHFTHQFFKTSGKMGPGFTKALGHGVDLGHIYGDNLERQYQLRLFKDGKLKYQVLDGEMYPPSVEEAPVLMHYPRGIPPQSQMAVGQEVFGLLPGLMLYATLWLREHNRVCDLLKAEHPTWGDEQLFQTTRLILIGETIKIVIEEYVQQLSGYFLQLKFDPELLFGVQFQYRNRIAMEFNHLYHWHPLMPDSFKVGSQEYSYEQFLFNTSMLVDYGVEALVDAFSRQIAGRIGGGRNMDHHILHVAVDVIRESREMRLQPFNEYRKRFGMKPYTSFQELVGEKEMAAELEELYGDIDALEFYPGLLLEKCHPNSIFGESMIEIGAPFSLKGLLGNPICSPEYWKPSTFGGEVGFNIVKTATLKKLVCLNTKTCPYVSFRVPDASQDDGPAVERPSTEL

tested microorganisms = test: MIC, summary over the tested microorganisms; type: cell-based; conditions: two-fold serial dilution
From the text: The new molecules were individually tested for their antimicrobial activity in vitro against standard bacteria strains from the American Type Culture Collection (ATCC), namely, Staphylococcus aureus ATCC 29213, Bacillus subtilis ATCC 6633, Bacillus megaterium ATCC 9885 (Gram-positive), Escherichia coli ATCC 2592, and Pseudomonas aeruginosa ATCC 27,953 (Gram-negative). The compounds were also microbiologically tested against locally isolated Saccharomyces cerevisiae (yeast) and the standard Agricultural Research Service Culture Collection (NRRL) strain of the yeast-like pathogenic fungus Candida albicans NRRL Y-477. Primary screening was conducted using the agar well diffusion method using nutrient agar (NA) medium and Sabourand dextrose agar (SDA) medium for the tested pathological bacteria and yeast, respectively. […].
The bacteriostatic activity of the active compounds (having IZ > 16 mm) was then evaluated using the two-fold serial dilution technique. Two-fold serial dilutions of the tested compounds solutions were prepared using the proper nutrient broth to reach final concentrations of 1000, 500, 250, and 125 μg/mL. The tubes were then inoculated with the test microorganisms grown in their suitable broth at 37 °C for 24 h (1 × 10^8 CFU/mL for bacteria and 1 × 10^6 CFU/mL of yeast), 0.1 mL of the above inoculum was administered per 5 mL, and the tubes were incubated at 37 °C for 24 h. The lowest concentration showing no growth was taken as the MIC.

[6] = tested on: formaldehyde-induced rat paw oedema; test: Formaldehyde-induced rat paw oedema (prophylactic); type: in vivo; conditions: 2.5 mg/kg orally, 1 h after inducing inflammation
[7] = read-out: MIC against Gram-positive bacteria
[8] = well diffusion, 100 μL of 10 mg/mL in DMSO, S. cerevisiae
[9] = read-out: MIC against one or more tested microorganisms

Cc1ccc2oc(=O)c3c(c2c1)OC(N)=C(C#N)C3c1ccc([N+](=O)[O-])cc1 (racemic) [2a, (±)-2-Amino-9-methyl-4-(4-nitrophenyl)-5-oxo-4H,5H-pyrano[3,2-c]chromene-3-carbonitrile]
zone of inhibition at 10000 µg/mL [1]: 24 mm
zone of inhibition at 10000 µg/mL [2]: 25 mm
zone of inhibition at 10000 µg/mL [3]: 18 mm
zone of inhibition at 10000 µg/mL [4]: 25 mm
MIC [5]: 500 µg/mL (≈ 1330 µM)
% Inhibition (proteinase) (trypsin): 17.38 ± 1.63%
IC50 (COX-1): 117 µM
MIC (tested microorganisms; [7]): 500 to 1000 µg/mL (≈ 1330 to 2660 µM)
melting point: 259 to 261 °C

Cc1ccc2oc(=O)c3c(c2c1)OC(N)=C(C#N)C3c1ccco1 (racemic) [2b, (±)-2-Amino-4-(furan-2-yl)-9-methyl-5-oxo-4H,5H-pyrano[3,2-c]chromene-3-carbonitrile]
zone of inhibition at 10000 µg/mL [1]: 25 mm
zone of inhibition at 10000 µg/mL [2]: 25 mm
zone of inhibition at 10000 µg/mL [3]: 18 mm
zone of inhibition at 10000 µg/mL [4]: 27 mm
MIC [5]: 500 µg/mL (≈ 1560 µM)
% Inhibition (proteinase) (trypsin): 74.68 ± 3.01%
% inhibition of paw oedema [6]: 6.57%
IC50 (COX-1): 201 µM
MIC (tested microorganisms; [7]): 500 to 1000 µg/mL (≈ 1560 to 3120 µM)
melting point: 251 to 253 °C

COc1cc(/C=N/C2=C(C#N)C(c3ccc([N+](=O)[O-])cc3)c3c(c4cc(C)ccc4oc3=O)O2)cc(OC)c1OC (racemic) [5c, (±)-9-methyl-4-(4-nitrophenyl)-5-oxo-2-((3,4,5-trimethoxybenzylidene)amino)-4H,5H-pyrano[3,2-c]chromene-3-carbonitrile]
zone of inhibition at 10000 µg/mL [1]: 23 mm
zone of inhibition at 10000 µg/mL [2]: 24 mm
zone of inhibition at 10000 µg/mL [3]: 24 mm
zone of inhibition at 10000 µg/mL [4]: 27 mm
MIC [5]: 500 µg/mL (≈ 903 µM)
% Inhibition (proteinase) (trypsin): 68.5 ± 6.23%
IC50 (COX-1): 18.5 µM
melting point: 221 to 223 °C

Cc1ccc2oc(=O)c3c(c2c1)OC(/N=C/c1ccc(Cl)cc1Cl)=C(C#N)C3c1ccco1 (racemic) [5f, (±)-2-((2,4-dichlorobenzylidene)amino)-4-(furan-2-yl)-9-methyl-5-oxo-4H,5H-pyrano[3,2-c]chromene-3-carbonitrile]
zone of inhibition at 10000 µg/mL [1]: 25 mm
zone of inhibition at 10000 µg/mL [2]: 20 mm
zone of inhibition at 10000 µg/mL [3]: 20 mm
zone of inhibition at 10000 µg/mL [4]: 24 mm
MIC [5]: 500 µg/mL (≈ 1050 µM)
% Inhibition (proteinase) (trypsin): 26.83 ± 5.33%
IC50 (COX-1): 90.2 µM
MIC (tested microorganisms; [7]): 500 to 1000 µg/mL (≈ 1050 to 2100 µM)
melting point: > 300 °C

NS(=O)(=O)c1ccc(NS(=O)(=O)c2c(O)c3cc(Cl)ccc3oc2=O)cc1 [7a, 6-Chloro-4-hydroxy-2-oxo-N-(4-sulfamoylphenyl)-2H-chromene-3-sulfonamide]
zone of inhibition at 10000 µg/mL [1]: 28 mm
zone of inhibition at 10000 µg/mL [2]: 25 mm
zone of inhibition at 10000 µg/mL [3]: 28 mm
zone of inhibition at 10000 µg/mL [4, 8]: 26 mm
MIC [5]: 250 µg/mL (≈ 580 µM)
% Inhibition (proteinase) (trypsin): 18.78 ± 2.05%
IC50 (COX-1): 239 µM
melting point: 245 to 247 °C

O=c1oc2ccc(Cl)cc2c(O)c1S(=O)(=O)Nc1ccc(S(=O)(=O)Nc2ncccn2)cc1 [7c, 6-Chloro-4-hydroxy-2-oxo-N-(4-(N-(pyrimidin-2-yl)sulfamoyl)phenyl)-2H-chromene-3-sulfonamide]
zone of inhibition at 10000 µg/mL [1]: 30 mm
zone of inhibition at 10000 µg/mL [2]: 30 mm
zone of inhibition at 10000 µg/mL [3]: 30 mm
zone of inhibition at 10000 µg/mL [4, 8]: 31 to 32 mm
MIC [5]: 125 µg/mL (≈ 246 µM)
% Inhibition (proteinase) (trypsin): 8.9 ± 2.04%
IC50 (COX-1): 62.3 µM
MIC (tested microorganisms; [9]): 125 µg/mL (≈ 246 µM)
melting point: 230 to 232 °C

Cc1ccc2oc(=O)c(S(=O)(=O)Nc3ccc(S(=O)(=O)Nc4ncccn4)cc3)c(O)c2c1 [7d, 4-Hydroxy-6-methyl-2-oxo-N-(4-(N-(pyrimidin-2-yl)sulfamoyl)phenyl)-2H-chromene-3-sulfonamide]
zone of inhibition at 10000 µg/mL [1]: 30 mm
zone of inhibition at 10000 µg/mL [2]: 30 mm
zone of inhibition at 10000 µg/mL [3]: 28 mm
zone of inhibition at 10000 µg/mL [4, 8]: 31 to 32 mm
MIC [5]: 125 µg/mL (≈ 256 µM)
% Inhibition (proteinase) (trypsin): 36.84 ± 4.87%
IC50 (COX-1): 214 µM
MIC (tested microorganisms; read-out: MIC against all microorganisms): 125 µg/mL (≈ 256 µM)
MIC (tested microorganisms; [9]): 125 µg/mL (≈ 256 µM)
melting point: 207 to 209 °C

O=c1oc2ccc(Cl)cc2c(O)c1S(=O)(=O)Nc1ccc(S(=O)(=O)Nc2nccs2)cc1 [7e, 6-Chloro-4-hydroxy-2-oxo-N-(4-(N-(thiazol-2-yl)sulfamoyl)phenyl)-2H-chromene-3-sulfonamide]
zone of inhibition at 10000 µg/mL [1]: 23 mm
zone of inhibition at 10000 µg/mL [2]: 25 mm
zone of inhibition at 10000 µg/mL [3]: 20 mm
zone of inhibition at 10000 µg/mL [4, 8]: 20 mm
MIC [5]: 500 µg/mL (≈ 973 µM)
% Inhibition (proteinase) (trypsin): 19.8 ± 2.54%
IC50 (COX-1): 29.6 µM
melting point: 215 to 217 °C

Cc1ccc2oc(=O)c(S(=O)(=O)Nc3ccc(S(=O)(=O)Nc4nccs4)cc3)c(O)c2c1 [7f, 4-Hydroxy-6-methyl-2-oxo-N-(4-(N-(thiazol-2-yl)sulfamoyl)phenyl)-2H-chromene-3-sulfonamide]
zone of inhibition at 10000 µg/mL [1]: 24 mm
zone of inhibition at 10000 µg/mL [2]: 27 mm
zone of inhibition at 10000 µg/mL [3]: 23 mm
zone of inhibition at 10000 µg/mL [4, 8]: 26 mm
MIC [5]: 250 µg/mL (≈ 507 µM)
% Inhibition (proteinase) (trypsin): 43.88 ± 5.6%
% inhibition of paw oedema [6]: 17.18%
IC50 (COX-1): 40.9 µM
melting point: 167 to 169 °C

O=c1oc2ccc(Cl)cc2c(O)c1S(=O)(=O)Nc1ccccc1 [8a, 6-Chloro-4-hydroxy-2-oxo-N-phenyl-2H-chromene-3-sulfonamide]
zone of inhibition at 10000 µg/mL [1]: 26 mm
zone of inhibition at 10000 µg/mL [2]: 29 mm
zone of inhibition at 10000 µg/mL [3]: 25 mm
zone of inhibition at 10000 µg/mL [4, 8]: 28 mm
MIC [5]: 500 µg/mL (≈ 1420 µM)
% Inhibition (proteinase) (trypsin): 44.7 ± 8.22%
IC50 (COX-1): 25 µM
melting point: 337 to 339 °C

Cc1ccc2oc(=O)c(S(=O)(=O)Nc3ccccc3)c(O)c2c1 [8b, 4-Hydroxy-6-methyl-2-oxo-N-phenyl-2H-chromene-3-sulfonamide]
zone of inhibition at 10000 µg/mL [1]: 20 mm
zone of inhibition at 10000 µg/mL [2]: 24 mm
zone of inhibition at 10000 µg/mL [3]: 18 mm
zone of inhibition at 10000 µg/mL [4, 8]: 19 mm
MIC [5]: 1000 µg/mL (≈ 3020 µM)
% Inhibition (proteinase) (trypsin): 14.3 ± 2.21%
IC50 (COX-1): 26 µM
melting point: 324 to 325 °C

O=c1oc2ccc(Cl)cc2c(O)c1S(=O)(=O)Nc1ccc(O)cc1 [8c, 6-Chloro-4-hydroxy-N-(4-hydroxyphenyl)-2-oxo-2H-chromene-3-sulfonamide]
zone of inhibition at 10000 µg/mL [1]: 30 mm
zone of inhibition at 10000 µg/mL [2]: 28 mm
zone of inhibition at 10000 µg/mL [3]: 27 mm
zone of inhibition at 10000 µg/mL [4, 8]: 31 to 32 mm
MIC [5]: 125 µg/mL (≈ 340 µM)
% Inhibition (proteinase) (trypsin): 41.69 ± 2.83%
% inhibition of paw oedema [6]: 9.45%
IC50 (COX-1): 15.4 µM
MIC (tested microorganisms; [9]): 125 µg/mL (≈ 340 µM)
melting point: 250 to 251 °C

Cc1ccc2oc(=O)c(S(=O)(=O)Nc3ccc(O)cc3)c(O)c2c1 [8d, 4-Hydroxy-N-(4-hydroxyphenyl)-6-methyl-2-oxo-2H-chromene-3-sulfonamide]
zone of inhibition at 10000 µg/mL [1]: 30 mm
zone of inhibition at 10000 µg/mL [2]: 29 mm
zone of inhibition at 10000 µg/mL [3]: 31 mm
zone of inhibition at 10000 µg/mL [4, 8]: 31 to 32 mm
MIC [5]: 125 µg/mL (≈ 360 µM)
% Inhibition (proteinase) (trypsin): 20.15 ± 7.31%
IC50 (COX-1): 19.4 µM
MIC (tested microorganisms; [9]): 125 µg/mL (≈ 360 µM)
melting point: 253 to 254 °C
